#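 All cell lines were grown in 96-well plates and treated with compound for 48 hours. At the GI50, growth is halved. TGI denotes the concentration required for complete inhibition of growth.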
# Assays:
# Assay in all cases: inhibition of tumour cell growth, NCI panel, 48 h
# SK-MEL-2 melanoma = test system: SK-MEL-2 melanoma
# HCT-15 colon = test system: HCT-15 colon
# ACHN renal = test system: ACHN renal
# HS 578T breast = test system: HS 578T breast
# HCT-116 colon = test system: HCT-116 colon
# DU-145 prostate = test system: DU-145 prostate
# NCI/ADR-RES ovarian = test system: NCI/ADR-RES ovarian
# UACC-62 melanoma = test system: UACC-62 melanoma
# PC-3 prostate = test system: PC-3 prostate
# IGROV1 ovarian = test system: IGROV1 ovarian
# OVCAR-4 ovarian = test system: OVCAR-4 ovarian
# SNB-75 CNS = test system: SNB-75 CNS
# CCRF-CEM leukemia = test system: CCRF-CEM leukemia
# SK-OV-3 ovarian = test system: SK-OV-3 ovarian
# HOP-92 NSCLC = test system: HOP-92 NSCLC
# HT29 colon = test system: HT29 colon
# UACC-257 melanoma = test system: UACC-257 melanoma
# UO-31 renal = test system: UO-31 renal
# MDA-MB-231 breast = test system: MDA-MB-231 breast
# MOLT-4 leukemia = test system: MOLT-4 leukemia
# T-47D breast = test system: T-47D breast
# SF-539 CNS = test system: SF-539 CNS
# SR leukemia = test system: SR leukemia
# SN12C renal = test system: SN12C renal
# OVCAR-8 ovarian = test system: OVCAR-8 ovarian
# NCI-H23 lung = test system: NCI-H23 lung
# MDA-MB-435 = test system: MDA-MB-435
# CAKI-1 renal = test system: CAKI-1 renal
# MALME-3M melanoma = test system: MALME-3M melanoma
# LOX IMVI melanoma = test system: LOX IMVI melanoma
# OVCAR-5 ovarian = test system: OVCAR-5 ovarian
# HCC-2998 colon = test system: HCC-2998 colon
# SF-295 CNS = test system: SF-295 CNS
# HL-60(TB) leukemia = test system: HL-60(TB) leukemia
# NCI-H226 lung = test system: NCI-H226 lung
# U251 CNS = test system: U251 CNS
# NCI-H460 lung = test system: NCI-H460 lung
# SK-MEL-28 melanoma = test system: SK-MEL-28 melanoma
# COLO 205 colon = test system: COLO 205 colon
# MCF7 breast = test system: MCF7 breast
# RXF 393 renal = test system: RXF 393 renal
# HOP-62 NSCLC = test system: HOP-62 NSCLC
# SW-620 colon = test system: SW-620 colon
# SK-MEL-5 melanoma = test system: SK-MEL-5 melanoma
# 786-0 renal = test system: 786-0 renal
# K-562 leukemia = test system: K-562 leukemia
# SF-268 CNS = test system: SF-268 CNS
# OVCAR-3 ovarian = test system: OVCAR-3 ovarian
# SNB-19 CNS = test system: SNB-19 CNS
# A498 renal = test system: A498 renal
# EKVX NSCLC = test system: EKVX NSCLC
# KM12 colon = test system: KM12 colon
# RPMI-8226 leukemia = test system: RPMI-8226 leukemia
# BT-549 breast = test system: BT-549 breast
# A549 NSCLC = test system: A549 NSCLC
# TK-10 renal = test system: TK-10 renal
compound,measurement,setting,value
COc1ccc(F)cc1/C=C/C(=O)/C=C(/C=C/c1cc(F)ccc1OC)OB(F)F,GI50,SK-MEL-2 melanoma,2.55 µM
same,TGI,SK-MEL-2 melanoma,7 µM
same,GI50,HCT-15 colon,1.27 µM
same,TGI,HCT-15 colon,2.93 µM
same,GI50,ACHN renal,1.02 µM
same,TGI,ACHN renal,2.37 µM
same,GI50,HS 578T breast,3.13 µM
same,TGI,HS 578T breast,> 100 µM
same,GI50,HCT-116 colon,1.39 µM
same,TGI,HCT-116 colon,4.21 µM
same,GI50,DU-145 prostate,2.06 µM
same,TGI,DU-145 prostate,> 100 µM
same,GI50,NCI/ADR-RES ovarian,1.66 µM
same,TGI,NCI/ADR-RES ovarian,6.41 µM
same,GI50,UACC-62 melanoma,1.27 µM
same,TGI,UACC-62 melanoma,2.9 µM
same,GI50,PC-3 prostate,1.5 µM
same,TGI,PC-3 prostate,3.89 µM
same,GI50,IGROV1 ovarian,2.04 µM
same,TGI,IGROV1 ovarian,6.05 µM
same,GI50,OVCAR-4 ovarian,2.33 µM
same,TGI,OVCAR-4 ovarian,> 100 µM
same,GI50,SNB-75 CNS,1.61 µM
same,TGI,SNB-75 CNS,4.86 µM
same,GI50,CCRF-CEM leukemia,0.261 µM
same,TGI,CCRF-CEM leukemia,0.679 µM
same,GI50,SK-OV-3 ovarian,3.48 µM
same,TGI,SK-OV-3 ovarian,> 100 µM
same,GI50,HOP-92 NSCLC,2.04 µM
same,TGI,HOP-92 NSCLC,4.62 µM
same,GI50,HT29 colon,1.85 µM
same,TGI,HT29 colon,4.79 µM
same,GI50,UACC-257 melanoma,2.03 µM
same,TGI,UACC-257 melanoma,7.48 µM
same,GI50,UO-31 renal,1.13 µM
same,TGI,UO-31 renal,2.47 µM
same,GI50,MDA-MB-231 breast,2.17 µM
same,TGI,MDA-MB-231 breast,6.1 µM
same,GI50,MOLT-4 leukemia,0.321 µM
same,TGI,MOLT-4 leukemia,4.75 µM
same,GI50,T-47D breast,2.17 µM
same,TGI,T-47D breast,96.6 µM
same,GI50,SF-539 CNS,2.4 µM
same,TGI,SF-539 CNS,6.68 µM
same,GI50,SR leukemia,0.481 µM
same,TGI,SR leukemia,23.4 µM
same,GI50,SN12C renal,1.64 µM
same,TGI,SN12C renal,4.83 µM
same,GI50,OVCAR-8 ovarian,0.513 µM
same,TGI,OVCAR-8 ovarian,5.23 µM
same,GI50,NCI-H23 lung,1.46 µM
same,TGI,NCI-H23 lung,4.05 µM
same,GI50,MDA-MB-435,1.47 µM
same,TGI,MDA-MB-435,5.02 µM
same,GI50,CAKI-1 renal,1.14 µM
same,TGI,CAKI-1 renal,2.44 µM
same,GI50,MALME-3M melanoma,2.05 µM
same,TGI,MALME-3M melanoma,9.12 µM
same,GI50,LOX IMVI melanoma,1.25 µM
same,TGI,LOX IMVI melanoma,2.56 µM
Cn1c(-c2c(N)n(Cc3ccc(C(F)(F)F)cc3)c3nc(C#N)c(C#N)nc23)nc2ccccc21,GI50,OVCAR-5 ovarian,19.8 µM
same,TGI,OVCAR-5 ovarian,44.2 µM
same,GI50,SK-MEL-2 melanoma,19.5 µM
same,TGI,SK-MEL-2 melanoma,60.3 µM
same,GI50,HCT-15 colon,20.3 µM
same,TGI,HCT-15 colon,> 100 µM
same,GI50,HCC-2998 colon,24.5 µM
same,TGI,HCC-2998 colon,56.4 µM
same,GI50,ACHN renal,22 µM
same,TGI,ACHN renal,> 100 µM
same,GI50,SF-295 CNS,11.2 µM
same,TGI,SF-295 CNS,29.8 µM
same,GI50,HL-60(TB) leukemia,16.7 µM
same,TGI,HL-60(TB) leukemia,39.3 µM
same,GI50,HCT-116 colon,13.1 µM
same,TGI,HCT-116 colon,26.9 µM
same,GI50,DU-145 prostate,25.3 µM
same,TGI,DU-145 prostate,65.8 µM
same,GI50,NCI-H226 lung,17.2 µM
same,TGI,NCI-H226 lung,36.2 µM
same,GI50,U251 CNS,12.5 µM
same,TGI,U251 CNS,30.4 µM
same,GI50,NCI-H460 lung,14.5 µM
same,TGI,NCI-H460 lung,40.3 µM
same,GI50,SK-MEL-28 melanoma,14.3 µM
same,TGI,SK-MEL-28 melanoma,29.1 µM
same,GI50,COLO 205 colon,18.3 µM
same,TGI,COLO 205 colon,34.1 µM
same,GI50,NCI/ADR-RES ovarian,30.2 µM
same,TGI,NCI/ADR-RES ovarian,> 100 µM
same,GI50,UACC-62 melanoma,11.2 µM
same,TGI,UACC-62 melanoma,25.5 µM
same,GI50,MCF7 breast,16 µM
same,TGI,MCF7 breast,57.4 µM
same,GI50,RXF 393 renal,11.3 µM
same,TGI,RXF 393 renal,25.3 µM
same,GI50,HOP-62 NSCLC,14.8 µM
same,TGI,HOP-62 NSCLC,33.2 µM
same,GI50,PC-3 prostate,6.95 µM
same,TGI,PC-3 prostate,69.6 µM
same,GI50,SW-620 colon,19.5 µM
same,TGI,SW-620 colon,42.2 µM
same,GI50,SK-MEL-5 melanoma,16.3 µM
same,TGI,SK-MEL-5 melanoma,31.5 µM
same,GI50,786-0 renal,18.3 µM
same,TGI,786-0 renal,40.2 µM
same,GI50,K-562 leukemia,13.4 µM
same,TGI,K-562 leukemia,44.6 µM
same,GI50,SF-268 CNS,19.7 µM
same,TGI,SF-268 CNS,56.5 µM
same,GI50,OVCAR-3 ovarian,6.44 µM
same,TGI,OVCAR-3 ovarian,22.3 µM
same,GI50,OVCAR-4 ovarian,32.7 µM
same,TGI,OVCAR-4 ovarian,> 100 µM
same,GI50,SNB-75 CNS,17 µM
same,TGI,SNB-75 CNS,78.3 µM
same,GI50,CCRF-CEM leukemia,17.2 µM
same,TGI,CCRF-CEM leukemia,45.7 µM
same,GI50,SK-OV-3 ovarian,34.7 µM
same,TGI,SK-OV-3 ovarian,> 100 µM
same,GI50,SNB-19 CNS,11.7 µM
same,TGI,SNB-19 CNS,73 µM
same,GI50,HOP-92 NSCLC,6.71 µM
same,TGI,HOP-92 NSCLC,38.3 µM
same,GI50,HT29 colon,24.4 µM
same,TGI,HT29 colon,73.1 µM
same,GI50,UACC-257 melanoma,28.1 µM
same,TGI,UACC-257 melanoma,65.2 µM
same,GI50,UO-31 renal,21.7 µM
same,TGI,UO-31 renal,> 100 µM
same,GI50,MDA-MB-231 breast,14.8 µM
same,TGI,MDA-MB-231 breast,31.8 µM
same,GI50,MOLT-4 leukemia,12.8 µM
same,TGI,MOLT-4 leukemia,40.5 µM
same,GI50,T-47D breast,8.76 µM
same,TGI,T-47D breast,74.7 µM
same,GI50,SF-539 CNS,19.9 µM
same,TGI,SF-539 CNS,42.8 µM
same,GI50,SR leukemia,20.6 µM
same,TGI,SR leukemia,47.3 µM
same,GI50,A498 renal,5.92 µM
same,TGI,A498 renal,25.3 µM
same,GI50,EKVX NSCLC,13.8 µM
same,TGI,EKVX NSCLC,> 100 µM
same,GI50,KM12 colon,18.2 µM
same,TGI,KM12 colon,38.2 µM
same,GI50,SN12C renal,24.2 µM
same,TGI,SN12C renal,71.6 µM
same,GI50,OVCAR-8 ovarian,32 µM
same,TGI,OVCAR-8 ovarian,97.5 µM
same,GI50,NCI-H23 lung,24.4 µM
same,TGI,NCI-H23 lung,70.2 µM
same,GI50,MDA-MB-435,20.7 µM
same,TGI,MDA-MB-435,49.2 µM
same,GI50,RPMI-8226 leukemia,5.69 µM
same,TGI,RPMI-8226 leukemia,26.4 µM
same,GI50,CAKI-1 renal,17.4 µM
same,TGI,CAKI-1 renal,57.3 µM
same,GI50,BT-549 breast,20.8 µM
same,TGI,BT-549 breast,86.6 µM
same,GI50,A549 NSCLC,32.8 µM
same,TGI,A549 NSCLC,> 100 µM
same,GI50,TK-10 renal,23.6 µM
same,TGI,TK-10 renal,80.6 µM
same,GI50,MALME-3M melanoma,21.9 µM
same,TGI,MALME-3M melanoma,63.6 µM
same,GI50,LOX IMVI melanoma,14.8 µM
same,TGI,LOX IMVI melanoma,30.2 µM

# From PubChem BioAssay (NCI)
